Test results as given in PubChem BioAssay AID1963835 (Molecular Pharmacology Branch, DTP, NCI, 2024).

Tested on: 699152-130-R-J1-PDC complex spheroid viability
Assay: Anticancer human tumor 699152-130-R-J1-PDC patient-derived pancreatic carcinoma cell line growth inhibition [POLQ]
Settings: for IC50: curve of first compound; for viability, T/C: stronger effect = lower value
In short: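 PDC + HUVEC + MSC complex spheroids; POLQ inhibitors ± partner drugs; top conc. at/near clinical Cmax, else 10 microM (SN-38 1 microM), half-log dilutions; 37 degrees C, 5% CO2.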
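Further: spheroids exposed to agents for 7 days before viability reading.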
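Wherever viability, T/C is given: percent of DMSO vehicle control viability so 100% = vehicle and 0% = no viable signal.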

## CCc1c2c(nc3ccc(O)cc13)-c1cc3c(c(=O)n1C2)COC(=O)[C@]3(O)CC + Cc1cccc(N(C)C(=O)C2C(O)CCN2c2nc(C)cc(C(F)(F)F)c2C#N)c1
Second compound 0.0316 µM
  IC50: 39.2 nM
Second compound 0.1 µM
  IC50: 37.1 nM
Second compound 0.316 µM
  IC50: 48.8 nM
Second compound 1 µM
  IC50: 46.5 nM
Second compound 3.16 µM
  IC50: 62.7 nM
Second compound 10 µM
  IC50: 49.8 nM
Second compound 0.0316 µM, first compound 0.00316 µM
  viability, T/C: 64.4%
Second compound 0.0316 µM, first compound 0.01 µM
  viability, T/C: 54.2%
Second compound 0.0316 µM, first compound 0.0316 µM
  viability, T/C: 48.2%
Second compound 0.0316 µM, first compound 0.1 µM
  viability, T/C: 46.4%
Second compound 0.0316 µM, first compound 0.316 µM
  viability, T/C: 30.4%
Second compound 0.0316 µM, first compound 1 µM
  viability, T/C: 10.9%
Second compound 0.1 µM, first compound 0.00316 µM
  viability, T/C: 78.5%
Second compound 0.1 µM, first compound 0.01 µM
  viability, T/C: 57.1%
Second compound 0.1 µM, first compound 0.0316 µM
  viability, T/C: 49.8%
Second compound 0.1 µM, first compound 0.1 µM
  viability, T/C: 44.9%
Second compound 0.1 µM, first compound 0.316 µM
  viability, T/C: 26.1%
Second compound 0.1 µM, first compound 1 µM
  viability, T/C: 8.04%
Second compound 0.316 µM, first compound 0.00316 µM
  viability, T/C: 79.2%
Second compound 0.316 µM, first compound 0.01 µM
  viability, T/C: 55.2%
Second compound 0.316 µM, first compound 0.0316 µM
  viability, T/C: 50.5%
Second compound 0.316 µM, first compound 0.1 µM
  viability, T/C: 51.6%
Second compound 0.316 µM, first compound 0.316 µM
  viability, T/C: 29.1%
Second compound 0.316 µM, first compound 1 µM
  viability, T/C: 8.39%
Second compound 1 µM, first compound 0.00316 µM
  viability, T/C: 77.9%
Second compound 1 µM, first compound 0.01 µM
  viability, T/C: 61.1%
Second compound 1 µM, first compound 0.0316 µM
  viability, T/C: 52.3%
Second compound 1 µM, first compound 0.1 µM
  viability, T/C: 47.4%
Second compound 1 µM, first compound 0.316 µM
  viability, T/C: 26.1%
Second compound 1 µM, first compound 1 µM
  viability, T/C: 10.2%
Second compound 3.16 µM, first compound 0.00316 µM
  viability, T/C: 87%
Second compound 3.16 µM, first compound 0.01 µM
  viability, T/C: 68.8%
Second compound 3.16 µM, first compound 0.0316 µM
  viability, T/C: 56.3%
Second compound 3.16 µM, first compound 0.1 µM
  viability, T/C: 48.6%
Second compound 3.16 µM, first compound 0.316 µM
  viability, T/C: 29.7%
Second compound 3.16 µM, first compound 1 µM
  viability, T/C: 12.6%
Second compound 10 µM, first compound 0.00316 µM
  viability, T/C: 78.5%
Second compound 10 µM, first compound 0.01 µM
  viability, T/C: 58%
Second compound 10 µM, first compound 0.0316 µM
  viability, T/C: 51.4%
Second compound 10 µM, first compound 0.1 µM
  viability, T/C: 47.9%
Second compound 10 µM, first compound 0.316 µM
  viability, T/C: 33.2%
Second compound 10 µM, first compound 1 µM
  viability, T/C: 9.43%

## CC(=O)O[C@H]1C(=O)[C@@]2(C)[C@H]([C@H](OC(=O)c3ccccc3)[C@]3(O)C[C@H](OC(=O)[C@H](O)[C@@H](NC(=O)c4ccccc4)c4ccccc4)C(C)=C1C3(C)C)[C@]1(OC(C)=O)CO[C@@H]1C[C@@H]2O + Cc1cccc(N(C)C(=O)C2C(O)CCN2c2nc(C)cc(C(F)(F)F)c2C#N)c1
Second compound 0.0316 µM
  IC50: > 3000 nM
Second compound 0.1 µM
  IC50: > 3000 nM
Second compound 0.316 µM
  IC50: > 3000 nM
Second compound 1 µM
  IC50: > 3000 nM
Second compound 3.16 µM
  IC50: > 3000 nM
Second compound 10 µM
  IC50: > 3000 nM
Second compound 0.0316 µM, first compound 0.00949 µM
  viability, T/C: 83.5%
Second compound 0.0316 µM, first compound 0.03 µM
  viability, T/C: 57.6%
Second compound 0.0316 µM, first compound 0.0949 µM
  viability, T/C: 56.1%
Second compound 0.0316 µM, first compound 0.3 µM
  viability, T/C: 56.9%
Second compound 0.0316 µM, first compound 0.949 µM
  viability, T/C: 67%
Second compound 0.0316 µM, first compound 3 µM
  viability, T/C: 65.9%
Second compound 0.1 µM, first compound 0.00949 µM
  viability, T/C: 79.7%
Second compound 0.1 µM, first compound 0.03 µM
  viability, T/C: 57.1%
Second compound 0.1 µM, first compound 0.0949 µM
  viability, T/C: 51%
Second compound 0.1 µM, first compound 0.3 µM
  viability, T/C: 57.7%
Second compound 0.1 µM, first compound 0.949 µM
  viability, T/C: 72.2%
Second compound 0.1 µM, first compound 3 µM
  viability, T/C: 64.9%
Second compound 0.316 µM, first compound 0.00949 µM
  viability, T/C: 74.5%
Second compound 0.316 µM, first compound 0.03 µM
  viability, T/C: 60.9%
Second compound 0.316 µM, first compound 0.0949 µM
  viability, T/C: 53.3%
Second compound 0.316 µM, first compound 0.3 µM
  viability, T/C: 59.4%
Second compound 0.316 µM, first compound 0.949 µM
  viability, T/C: 64.9%
Second compound 0.316 µM, first compound 3 µM
  viability, T/C: 64.1%
Second compound 1 µM, first compound 0.00949 µM
  viability, T/C: 81.2%
Second compound 1 µM, first compound 0.03 µM
  viability, T/C: 54.8%
Second compound 1 µM, first compound 0.0949 µM
  viability, T/C: 57.9%
Second compound 1 µM, first compound 0.3 µM
  viability, T/C: 61.3%
Second compound 1 µM, first compound 0.949 µM
  viability, T/C: 62.4%
Second compound 1 µM, first compound 3 µM
  viability, T/C: 71.8%
Second compound 3.16 µM, first compound 0.00949 µM
  viability, T/C: 82.8%
Second compound 3.16 µM, first compound 0.03 µM
  viability, T/C: 62.1%
Second compound 3.16 µM, first compound 0.0949 µM
  viability, T/C: 58.8%
Second compound 3.16 µM, first compound 0.3 µM
  viability, T/C: 65.2%
Second compound 3.16 µM, first compound 0.949 µM
  viability, T/C: 69.7%
Second compound 3.16 µM, first compound 3 µM
  viability, T/C: 79.1%
Second compound 10 µM, first compound 0.00949 µM
  viability, T/C: 84%
Second compound 10 µM, first compound 0.03 µM
  viability, T/C: 57%
Second compound 10 µM, first compound 0.0949 µM
  viability, T/C: 69.1%
Second compound 10 µM, first compound 0.3 µM
  viability, T/C: 65.9%
Second compound 10 µM, first compound 0.949 µM
  viability, T/C: 72.1%
Second compound 10 µM, first compound 3 µM
  viability, T/C: 82.8%
